Measured values taken from ChEMBL document CHEMBL4406914, “Impact of Minor Structural Modifications on Properties of a Series of mTOR Inhibitors” (ACS Med Chem Lett, 2019).
≈ marks a conversion by molar mass, not a printed value. Calls of active or inactive are those of the source. No cut-off for these calls is given here.

Tests used:
[1] = Metabolic stability in human liver microsomes assessed as parent compound remaining at 1 uM measured at 15 mins in presence of phase 1 metabolism cofactors by LC-MS/MS analysis; type: ADME, Microsome; details: read-out: Stability
[2] = Hepatic intrinsic clearance in human Hepatocytes assessed per at 1 uM measured upto 90 mins by LC-MS/MS analysis; type: ADME, cell-based, Hepatocyte; details: 1.5 h
[3] = biological target: Serine/threonine-protein kinase mTOR (Homo sapiens, UniProt P42345); assay: Inhibition of human recombinant GST-tagged mTOR catalytic domain (1360 to 2549 residues) expressed in baculovirus expression system using GFP-4E-BP1 peptide as substrate incubated for 1 hr by LanthaScreen assay
mTORC1 = mTORC1 (Homo sapiens, UniProt P42345); assay: Inhibition of mTORC1 in human A431 cells assessed as S6RP phosphorylation incubated for 3 hrs by HTRF assay; type: cell-based
mTORC2 = mTORC2 (Homo sapiens, UniProt P42345); assay: Inhibition of mTORC2 in human A431 cells assessed as AKT phosphorylation at S473 residue incubated for 3 hrs by HTRF assay; type: cell-based
[4] = Kinetic aqueous solubility of compound in phosphate buffer at pH 7.4 at 100 uM at 20 degree C shaken for 24 hrs by HPLC analysis; type: physicochemical; details: read-out: Kinetic_solubility
[5] = biological target: Phosphatidylinositol 4-phosphate 3-kinase C2 domain-containing subunit beta (Homo sapiens) (UniProt O00750); assay: Inhibition of wild-type human partial length PIK3C2B (M1 to L1634 residues) expressed in mammalian expression system at 10 uM by Kinomescan method
Sequence of Phosphatidylinositol 4-phosphate 3-kinase C2 domain-containing subunit beta (Homo sapiens) (O00750 whole entry, the tested form may be a part): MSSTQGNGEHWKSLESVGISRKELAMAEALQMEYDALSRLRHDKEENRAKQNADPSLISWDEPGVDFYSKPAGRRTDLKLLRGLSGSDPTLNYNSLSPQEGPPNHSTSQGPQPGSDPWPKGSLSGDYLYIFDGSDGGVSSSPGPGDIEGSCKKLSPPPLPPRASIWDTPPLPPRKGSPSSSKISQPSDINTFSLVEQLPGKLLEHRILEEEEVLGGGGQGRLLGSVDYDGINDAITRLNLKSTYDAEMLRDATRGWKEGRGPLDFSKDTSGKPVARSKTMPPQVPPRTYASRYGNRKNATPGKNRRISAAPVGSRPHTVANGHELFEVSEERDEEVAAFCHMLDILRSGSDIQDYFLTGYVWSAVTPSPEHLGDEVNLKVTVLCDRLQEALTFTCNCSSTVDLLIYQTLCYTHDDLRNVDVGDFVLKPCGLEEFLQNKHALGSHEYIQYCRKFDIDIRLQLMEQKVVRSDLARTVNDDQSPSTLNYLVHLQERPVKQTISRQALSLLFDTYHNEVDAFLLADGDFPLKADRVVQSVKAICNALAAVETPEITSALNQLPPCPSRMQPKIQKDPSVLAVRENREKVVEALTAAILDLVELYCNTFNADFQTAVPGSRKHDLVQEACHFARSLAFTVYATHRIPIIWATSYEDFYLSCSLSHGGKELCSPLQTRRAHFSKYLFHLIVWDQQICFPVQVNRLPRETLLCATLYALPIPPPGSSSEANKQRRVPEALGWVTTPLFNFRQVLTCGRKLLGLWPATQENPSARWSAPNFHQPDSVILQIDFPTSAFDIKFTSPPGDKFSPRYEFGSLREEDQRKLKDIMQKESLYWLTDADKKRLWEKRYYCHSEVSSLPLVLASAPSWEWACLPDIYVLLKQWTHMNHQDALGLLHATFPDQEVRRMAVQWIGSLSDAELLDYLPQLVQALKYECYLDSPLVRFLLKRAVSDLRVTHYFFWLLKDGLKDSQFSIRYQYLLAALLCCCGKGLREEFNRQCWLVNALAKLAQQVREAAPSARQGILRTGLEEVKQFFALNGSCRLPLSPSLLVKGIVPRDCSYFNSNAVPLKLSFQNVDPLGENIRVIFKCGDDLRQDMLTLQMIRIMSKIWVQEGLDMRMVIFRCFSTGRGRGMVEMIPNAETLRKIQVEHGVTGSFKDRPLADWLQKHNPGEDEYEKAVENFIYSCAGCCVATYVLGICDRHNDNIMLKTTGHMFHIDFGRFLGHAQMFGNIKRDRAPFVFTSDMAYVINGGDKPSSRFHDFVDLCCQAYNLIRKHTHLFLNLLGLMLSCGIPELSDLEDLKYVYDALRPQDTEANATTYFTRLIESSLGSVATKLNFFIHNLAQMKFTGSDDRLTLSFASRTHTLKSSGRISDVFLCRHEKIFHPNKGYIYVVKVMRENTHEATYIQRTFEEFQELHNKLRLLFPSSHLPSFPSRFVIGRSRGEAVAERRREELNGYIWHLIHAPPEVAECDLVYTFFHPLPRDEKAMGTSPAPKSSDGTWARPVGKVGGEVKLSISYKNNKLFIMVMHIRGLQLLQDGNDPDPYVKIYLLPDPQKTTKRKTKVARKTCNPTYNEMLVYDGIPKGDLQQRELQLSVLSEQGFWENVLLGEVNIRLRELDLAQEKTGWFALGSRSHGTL

[6] = biological target: T1, Phosphatidylinositol 3-kinase C2 domain-containing subunit gamma (Homo sapiens) (UniProt O75747); assay: Inhibition of wild-type human partial length PIK3C2G (M1 to I1446 residues) expressed in mammalian expression system at 10 uM by Kinomescan method
T1 sequence (whole entry): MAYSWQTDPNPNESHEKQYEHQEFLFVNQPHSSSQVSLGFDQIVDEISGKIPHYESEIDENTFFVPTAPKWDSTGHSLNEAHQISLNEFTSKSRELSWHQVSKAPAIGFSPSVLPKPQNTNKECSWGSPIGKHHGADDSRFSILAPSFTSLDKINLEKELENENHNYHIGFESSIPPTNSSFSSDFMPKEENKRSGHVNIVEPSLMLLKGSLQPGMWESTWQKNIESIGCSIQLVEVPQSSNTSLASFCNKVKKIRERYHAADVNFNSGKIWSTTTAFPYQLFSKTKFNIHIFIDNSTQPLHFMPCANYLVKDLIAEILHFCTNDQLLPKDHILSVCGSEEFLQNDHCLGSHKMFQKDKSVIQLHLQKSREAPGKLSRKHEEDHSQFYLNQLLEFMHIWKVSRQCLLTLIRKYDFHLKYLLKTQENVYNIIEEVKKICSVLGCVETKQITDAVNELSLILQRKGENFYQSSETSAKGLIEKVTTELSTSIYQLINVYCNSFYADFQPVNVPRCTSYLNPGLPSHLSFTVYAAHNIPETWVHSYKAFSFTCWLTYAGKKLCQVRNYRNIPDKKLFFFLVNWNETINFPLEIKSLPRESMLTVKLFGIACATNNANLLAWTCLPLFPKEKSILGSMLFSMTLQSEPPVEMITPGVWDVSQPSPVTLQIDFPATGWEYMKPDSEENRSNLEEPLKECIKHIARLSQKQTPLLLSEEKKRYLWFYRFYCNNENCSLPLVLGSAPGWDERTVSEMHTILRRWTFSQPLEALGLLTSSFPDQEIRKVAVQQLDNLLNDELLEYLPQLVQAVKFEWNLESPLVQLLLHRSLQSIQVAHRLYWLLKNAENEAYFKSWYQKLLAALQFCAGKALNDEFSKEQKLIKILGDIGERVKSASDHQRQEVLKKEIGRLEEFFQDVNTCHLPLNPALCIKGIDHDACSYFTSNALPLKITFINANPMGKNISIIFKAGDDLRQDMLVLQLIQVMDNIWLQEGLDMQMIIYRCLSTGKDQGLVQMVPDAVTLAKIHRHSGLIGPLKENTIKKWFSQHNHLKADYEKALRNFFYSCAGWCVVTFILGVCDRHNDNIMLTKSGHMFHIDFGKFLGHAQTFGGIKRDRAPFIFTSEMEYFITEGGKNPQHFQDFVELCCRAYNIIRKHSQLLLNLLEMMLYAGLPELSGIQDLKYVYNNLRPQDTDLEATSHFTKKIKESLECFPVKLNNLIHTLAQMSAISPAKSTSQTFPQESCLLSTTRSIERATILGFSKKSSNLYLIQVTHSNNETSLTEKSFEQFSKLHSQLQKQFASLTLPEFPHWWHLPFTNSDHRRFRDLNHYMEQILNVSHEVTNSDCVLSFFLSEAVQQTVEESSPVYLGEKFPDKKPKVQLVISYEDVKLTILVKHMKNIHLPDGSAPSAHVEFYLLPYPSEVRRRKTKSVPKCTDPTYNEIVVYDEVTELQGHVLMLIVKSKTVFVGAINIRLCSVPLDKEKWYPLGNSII

[7] = biological target: Phosphatidylinositol 4,5-bisphosphate 3-kinase catalytic subunit beta isoform (Homo sapiens) (UniProt P42338); assay: Inhibition of wild-type human partial length PIK3CB (P118 to S1070 residues) expressed in mammalian expression system at 10 uM by Kinomescan method
Sequence of Phosphatidylinositol 4,5-bisphosphate 3-kinase catalytic subunit beta isoform (Homo sapiens) (P42338 whole entry, looked up, the tested form may be a part, canonical isoform): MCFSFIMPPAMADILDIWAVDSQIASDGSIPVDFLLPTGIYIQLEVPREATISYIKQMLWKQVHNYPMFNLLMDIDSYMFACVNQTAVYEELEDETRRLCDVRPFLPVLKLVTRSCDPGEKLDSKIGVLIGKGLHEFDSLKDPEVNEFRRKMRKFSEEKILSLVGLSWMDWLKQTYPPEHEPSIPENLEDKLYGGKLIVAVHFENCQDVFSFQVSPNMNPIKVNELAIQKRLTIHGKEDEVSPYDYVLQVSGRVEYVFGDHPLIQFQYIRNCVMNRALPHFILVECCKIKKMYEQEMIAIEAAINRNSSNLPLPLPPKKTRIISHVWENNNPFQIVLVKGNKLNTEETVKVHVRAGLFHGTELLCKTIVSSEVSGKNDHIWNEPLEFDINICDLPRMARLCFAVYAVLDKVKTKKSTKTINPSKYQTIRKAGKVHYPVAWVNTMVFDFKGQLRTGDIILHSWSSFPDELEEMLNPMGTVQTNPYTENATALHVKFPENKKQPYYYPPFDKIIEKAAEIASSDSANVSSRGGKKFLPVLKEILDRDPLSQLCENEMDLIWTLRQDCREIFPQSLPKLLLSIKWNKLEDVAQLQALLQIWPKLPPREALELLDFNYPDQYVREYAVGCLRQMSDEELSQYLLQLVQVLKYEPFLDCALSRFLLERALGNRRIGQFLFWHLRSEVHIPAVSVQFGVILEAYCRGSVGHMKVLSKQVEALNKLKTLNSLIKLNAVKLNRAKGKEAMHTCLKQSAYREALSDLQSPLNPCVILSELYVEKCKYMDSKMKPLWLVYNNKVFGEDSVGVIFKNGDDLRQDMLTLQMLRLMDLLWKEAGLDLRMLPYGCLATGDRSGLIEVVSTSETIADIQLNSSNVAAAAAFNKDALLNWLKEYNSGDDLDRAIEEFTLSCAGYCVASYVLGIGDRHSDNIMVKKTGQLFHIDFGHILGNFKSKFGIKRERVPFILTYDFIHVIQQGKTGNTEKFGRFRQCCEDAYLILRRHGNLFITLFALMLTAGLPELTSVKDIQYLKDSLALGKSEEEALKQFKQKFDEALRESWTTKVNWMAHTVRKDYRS

[8] = biological target: T2, Phosphatidylinositol 4,5-bisphosphate 3-kinase catalytic subunit delta isoform (Homo sapiens) (UniProt O00329); assay: Inhibition of wild-type human partial length PIK3CD (R108 to Q1044 residues) expressed in mammalian expression system at 10 uM by Kinomescan method
T2 sequence (whole entry): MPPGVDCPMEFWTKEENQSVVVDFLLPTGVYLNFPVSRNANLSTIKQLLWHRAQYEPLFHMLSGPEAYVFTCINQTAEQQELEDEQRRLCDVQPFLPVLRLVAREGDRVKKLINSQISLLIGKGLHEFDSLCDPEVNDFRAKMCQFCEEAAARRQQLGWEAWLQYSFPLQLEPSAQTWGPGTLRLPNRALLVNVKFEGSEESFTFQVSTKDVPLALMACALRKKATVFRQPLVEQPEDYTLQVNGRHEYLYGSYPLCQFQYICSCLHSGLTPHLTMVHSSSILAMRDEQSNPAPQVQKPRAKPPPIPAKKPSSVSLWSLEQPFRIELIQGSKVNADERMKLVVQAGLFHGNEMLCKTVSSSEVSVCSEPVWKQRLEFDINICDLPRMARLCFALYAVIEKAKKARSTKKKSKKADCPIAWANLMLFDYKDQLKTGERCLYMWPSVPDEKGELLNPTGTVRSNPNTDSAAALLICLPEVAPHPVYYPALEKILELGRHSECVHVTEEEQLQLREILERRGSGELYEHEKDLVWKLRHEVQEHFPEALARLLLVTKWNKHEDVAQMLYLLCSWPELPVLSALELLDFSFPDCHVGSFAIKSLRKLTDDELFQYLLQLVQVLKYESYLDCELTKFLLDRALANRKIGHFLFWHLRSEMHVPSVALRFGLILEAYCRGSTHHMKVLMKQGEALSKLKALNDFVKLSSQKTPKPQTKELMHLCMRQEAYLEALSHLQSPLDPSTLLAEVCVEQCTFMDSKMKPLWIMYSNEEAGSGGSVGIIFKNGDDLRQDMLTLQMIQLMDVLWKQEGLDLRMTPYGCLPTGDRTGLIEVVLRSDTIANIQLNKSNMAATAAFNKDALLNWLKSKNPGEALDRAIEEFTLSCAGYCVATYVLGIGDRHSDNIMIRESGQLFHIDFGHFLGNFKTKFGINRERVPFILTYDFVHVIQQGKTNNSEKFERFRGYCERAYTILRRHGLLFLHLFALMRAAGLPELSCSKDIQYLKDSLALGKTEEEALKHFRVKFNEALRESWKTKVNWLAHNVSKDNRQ

[9] = biological target: Phosphatidylinositol 4,5-bisphosphate 3-kinase catalytic subunit gamma isoform (Homo sapiens) (UniProt P48736); assay: Inhibition of wild-type human partial length PIK3CG (S144 to A1102 residues) expressed in mammalian expression system at 10 uM by Kinomescan method
Sequence of Phosphatidylinositol 4,5-bisphosphate 3-kinase catalytic subunit gamma isoform (Homo sapiens) (P48736 whole entry, looked up, the tested form may be a part, canonical isoform): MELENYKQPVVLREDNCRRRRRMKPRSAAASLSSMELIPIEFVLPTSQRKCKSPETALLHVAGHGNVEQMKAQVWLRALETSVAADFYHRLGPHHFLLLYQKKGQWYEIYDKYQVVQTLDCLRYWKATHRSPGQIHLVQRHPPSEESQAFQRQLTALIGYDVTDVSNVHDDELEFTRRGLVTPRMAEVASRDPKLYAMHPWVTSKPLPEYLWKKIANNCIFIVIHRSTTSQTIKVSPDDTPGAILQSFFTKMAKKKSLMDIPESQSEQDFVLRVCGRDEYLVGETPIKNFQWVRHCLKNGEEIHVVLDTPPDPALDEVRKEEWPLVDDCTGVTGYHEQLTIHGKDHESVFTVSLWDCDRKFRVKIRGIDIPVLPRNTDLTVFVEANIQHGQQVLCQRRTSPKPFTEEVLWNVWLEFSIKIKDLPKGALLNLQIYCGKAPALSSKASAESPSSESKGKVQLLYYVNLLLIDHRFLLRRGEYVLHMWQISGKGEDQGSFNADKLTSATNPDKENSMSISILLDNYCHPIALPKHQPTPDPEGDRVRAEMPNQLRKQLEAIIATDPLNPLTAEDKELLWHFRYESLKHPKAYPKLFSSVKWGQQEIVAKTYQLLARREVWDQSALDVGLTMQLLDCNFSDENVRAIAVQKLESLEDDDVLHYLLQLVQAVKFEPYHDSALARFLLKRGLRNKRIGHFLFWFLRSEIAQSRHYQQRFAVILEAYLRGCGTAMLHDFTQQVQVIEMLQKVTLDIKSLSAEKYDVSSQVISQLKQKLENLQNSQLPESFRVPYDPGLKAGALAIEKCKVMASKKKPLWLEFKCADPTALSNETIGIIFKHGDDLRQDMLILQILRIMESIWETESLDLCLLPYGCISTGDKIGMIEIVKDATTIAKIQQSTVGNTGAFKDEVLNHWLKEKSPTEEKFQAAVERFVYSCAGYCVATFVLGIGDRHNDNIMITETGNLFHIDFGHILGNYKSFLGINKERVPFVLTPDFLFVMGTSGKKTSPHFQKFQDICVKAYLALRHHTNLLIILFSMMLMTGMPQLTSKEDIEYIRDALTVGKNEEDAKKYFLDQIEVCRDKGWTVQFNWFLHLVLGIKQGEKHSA

[10] = biological target: Phosphatidylinositol 4,5-bisphosphate 3-kinase catalytic subunit alpha isoform (Homo sapiens, UniProt P42336)
Sequence of Phosphatidylinositol 4,5-bisphosphate 3-kinase catalytic subunit alpha isoform (P42336 whole entry, canonical isoform): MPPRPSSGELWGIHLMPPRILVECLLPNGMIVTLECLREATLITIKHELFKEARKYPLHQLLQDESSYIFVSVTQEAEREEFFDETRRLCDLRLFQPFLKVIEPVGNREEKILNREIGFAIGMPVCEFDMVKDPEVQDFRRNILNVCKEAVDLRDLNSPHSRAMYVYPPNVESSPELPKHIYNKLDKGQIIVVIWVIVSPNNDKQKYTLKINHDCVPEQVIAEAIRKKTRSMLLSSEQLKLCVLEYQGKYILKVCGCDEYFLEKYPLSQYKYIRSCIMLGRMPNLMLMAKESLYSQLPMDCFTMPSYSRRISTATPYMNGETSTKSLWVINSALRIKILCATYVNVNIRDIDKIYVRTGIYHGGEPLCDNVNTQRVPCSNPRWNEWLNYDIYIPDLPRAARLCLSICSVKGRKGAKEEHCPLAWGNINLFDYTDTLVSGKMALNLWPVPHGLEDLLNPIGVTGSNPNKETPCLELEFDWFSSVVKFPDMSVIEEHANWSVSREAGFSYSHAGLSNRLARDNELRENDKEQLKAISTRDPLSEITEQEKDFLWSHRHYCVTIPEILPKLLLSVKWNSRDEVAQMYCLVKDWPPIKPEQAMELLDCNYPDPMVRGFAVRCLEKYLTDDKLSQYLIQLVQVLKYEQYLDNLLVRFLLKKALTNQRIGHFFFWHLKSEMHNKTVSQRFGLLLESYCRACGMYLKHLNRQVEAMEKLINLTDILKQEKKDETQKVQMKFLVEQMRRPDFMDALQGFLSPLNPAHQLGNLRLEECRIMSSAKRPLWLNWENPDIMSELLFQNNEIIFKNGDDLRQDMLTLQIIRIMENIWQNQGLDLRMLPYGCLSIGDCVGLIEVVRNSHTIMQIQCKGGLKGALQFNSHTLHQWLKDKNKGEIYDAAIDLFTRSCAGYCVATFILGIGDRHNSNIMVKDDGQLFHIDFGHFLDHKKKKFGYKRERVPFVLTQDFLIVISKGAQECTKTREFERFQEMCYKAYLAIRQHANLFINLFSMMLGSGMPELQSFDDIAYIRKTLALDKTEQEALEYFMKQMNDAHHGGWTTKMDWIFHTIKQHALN
Description: Inhibition of PI3Kalpha (unknown origin) using PIP2 as substrate measured after 30 mins by TR-FRET assay

[11] = Lipophilicity, ChromlogD of compound at 0.5 mM at pH 6.5 by UPLC-UV analysis; details: buffer, pH 6.5, 500 µM

## CC(C)n1nc(-c2ccc3oc(N)nc3c2)c2c(=O)[nH]cnc21
[1]
  remaining at 0.25 h, 1 µM: > 95%
[2]
  CLH: < 5 µL/min
[3]
  Ki: 28 nM
mTORC1
  IC50: 30 nM
mTORC2
  IC50: 130 nM
[4]
  solubility kinetic at 24 h, 100 µM: 3 µM (≈ 0.931 µg/mL)
[5]
  inhibition: inactive
[6]
  inhibition: inactive
[7]
  inhibition: inactive
[8]
  inhibition: inactive
[9]
  inhibition: inactive
[10]
  Ki: > 10000 nM
[11]
  ChromlogD6.5: 0.9
